Values belong to the compound of their own block, whether it stands above or below them.
Tested on: 883617-216-R-J1-PDC tumor spheroids, viability
Assay: Anticancer human tumor 883617-216-R-J1-PDC patient-derived bladder carcinoma cell line growth inhibition [PI3K]
Conditions: spheroids with HUVEC and MSC; for IC50: curve of first compound; for viability, T/C: stronger effect = lower value
Summary of the method: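 Tumor cells grown as multi-cell spheroids with HUVEC endothelial cells and MSC fibroblast-like stroma were treated with targeted agents combined with inavolisib, alpelisib, duvelisib or copanlisib. Doses fell in half-log steps from near clinical Cmax, else from 10 microM. Viability was measured.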

[1] = second compound 0.0316 µM, first compound 0.0316 µM
[2] = second compound 0.0316 µM, first compound 0.1 µM
[3] = second compound 0.0316 µM, first compound 0.316 µM
[4] = second compound 0.0316 µM, first compound 1 µM
[5] = second compound 0.0316 µM, first compound 3.16 µM
[6] = second compound 0.0316 µM, first compound 10 µM
[7] = second compound 0.1 µM, first compound 0.0316 µM
[8] = second compound 0.1 µM, first compound 0.1 µM
[9] = second compound 0.1 µM, first compound 0.316 µM
[10] = second compound 0.1 µM, first compound 1 µM
[11] = second compound 0.1 µM, first compound 3.16 µM
[12] = second compound 0.1 µM, first compound 10 µM
[13] = second compound 0.316 µM, first compound 0.0316 µM
[14] = second compound 0.316 µM, first compound 0.1 µM
[15] = second compound 0.316 µM, first compound 0.316 µM
[16] = second compound 0.316 µM, first compound 1 µM
[17] = second compound 0.316 µM, first compound 3.16 µM
[18] = second compound 0.316 µM, first compound 10 µM
[19] = second compound 1 µM, first compound 0.0316 µM
[20] = second compound 1 µM, first compound 0.1 µM
[21] = second compound 1 µM, first compound 0.316 µM
[22] = second compound 1 µM, first compound 1 µM
[23] = second compound 1 µM, first compound 3.16 µM
[24] = second compound 1 µM, first compound 10 µM
[25] = second compound 3.16 µM, first compound 0.0316 µM
[26] = second compound 3.16 µM, first compound 0.1 µM
[27] = second compound 3.16 µM, first compound 0.316 µM
[28] = second compound 3.16 µM, first compound 1 µM
[29] = second compound 3.16 µM, first compound 3.16 µM
[30] = second compound 3.16 µM, first compound 10 µM
[31] = second compound 10 µM, first compound 0.0316 µM
[32] = second compound 10 µM, first compound 0.1 µM
[33] = second compound 10 µM, first compound 0.316 µM
[34] = second compound 10 µM, first compound 1 µM
[35] = second compound 10 µM, first compound 3.16 µM
[36] = second compound 10 µM, first compound 10 µM
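Note: spheroids exposed to agents for 7 days before the viability read.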

- IC50 (second compound 0.0316 µM): > 10000 nM
- IC50 (second compound 0.1 µM): > 10000 nM
- IC50 (second compound 0.316 µM): < 31.6 nM
- IC50 (second compound 1 µM): < 31.6 nM
- IC50 (second compound 3.16 µM): < 31.6 nM
- IC50 (second compound 10 µM): < 31.6 nM
Compound: CNC(=O)c1ccc(N2C(=S)N(c3ccc(C#N)c(C(F)(F)F)c3)C(=O)C2(C)C)cc1F + Cc1nc(NC(=O)N2CCCC2C(N)=O)sc1-c1ccnc(C(C)(C)C(F)(F)F)c1
- viability, T/C [1]: 94.3%
- viability, T/C [2]: 75.6%
- viability, T/C [3]: 86.2%
- viability, T/C [4]: 82.5%
- viability, T/C [5]: 87.8%
- viability, T/C [6]: 63.4%
- viability, T/C [7]: 74%
- viability, T/C [8]: 67.2%
- viability, T/C [9]: 81.8%
- viability, T/C [10]: 74.7%
- viability, T/C [11]: 63.6%
- viability, T/C [12]: 73.7%
- viability, T/C [13]: 48.6%
- viability, T/C [14]: 49.1%
- viability, T/C [15]: 46.7%
- viability, T/C [16]: 45.7%
- viability, T/C [17]: 53.6%
- viability, T/C [18]: 45.6%
- viability, T/C [19]: 31%
- viability, T/C [20]: 27.3%
- viability, T/C [21]: 33.1%
- viability, T/C [22]: 32.4%
- viability, T/C [23]: 25.9%
- viability, T/C [24]: 31.7%
- viability, T/C [25]: 15.9%
- viability, T/C [26]: 15.3%
- viability, T/C [27]: 17.6%
- viability, T/C [28]: 16.6%
- viability, T/C [29]: 15.7%
- viability, T/C [30]: 14.3%
- viability, T/C [31]: 8.45%
- viability, T/C [32]: 7.75%
- viability, T/C [33]: 8.14%
- viability, T/C [34]: 7.47%
- viability, T/C [35]: 8.35%
- viability, T/C [36]: 6.73%

- IC50 (second compound 0.0316 µM): > 10000 nM
- IC50 (second compound 0.1 µM): > 10000 nM
- IC50 (second compound 0.316 µM): > 10000 nM
- IC50 (second compound 1 µM): > 10000 nM
- IC50 (second compound 3.16 µM): > 10000 nM
- IC50 (second compound 10 µM): 3250 nM
Compound: CNC(=O)c1ccc(N2C(=S)N(c3ccc(C#N)c(C(F)(F)F)c3)C(=O)C2(C)C)cc1F + CC(Nc1ncnc2nc[nH]c12)c1cc2cccc(Cl)c2c(=O)n1-c1ccccc1
- viability, T/C [1]: 91.8%
- viability, T/C [2]: 94.3%
- viability, T/C [3]: 92.8%
- viability, T/C [4]: 96.2%
- viability, T/C [5]: 83.9%
- viability, T/C [6]: 89%
- viability, T/C [7]: 89.4%
- viability, T/C [8]: 93.2%
- viability, T/C [9]: 90.2%
- viability, T/C [10]: 103%
- viability, T/C [11]: 89.8%
- viability, T/C [12]: 67%
- viability, T/C [13]: 88.1%
- viability, T/C [14]: 98.9%
- viability, T/C [15]: 84.9%
- viability, T/C [16]: 88.6%
- viability, T/C [17]: 82.7%
- viability, T/C [18]: 70.2%
- viability, T/C [19]: 84.5%
- viability, T/C [20]: 90.8%
- viability, T/C [21]: 83%
- viability, T/C [22]: 89.8%
- viability, T/C [23]: 73.3%
- viability, T/C [24]: 79.7%
- viability, T/C [25]: 70.6%
- viability, T/C [26]: 78.5%
- viability, T/C [27]: 72.7%
- viability, T/C [28]: 76.4%
- viability, T/C [29]: 69.2%
- viability, T/C [30]: 55.6%
- viability, T/C [31]: 50.8%
- viability, T/C [32]: 53.1%
- viability, T/C [33]: 50.5%
- viability, T/C [34]: 47.4%
- viability, T/C [35]: 50.6%
- viability, T/C [36]: 38.9%

- IC50 (second compound 0.0316 µM): 518 nM
- IC50 (second compound 0.1 µM): 443 nM
- IC50 (second compound 0.316 µM): 539 nM
- IC50 (second compound 1 µM): 394 nM
- IC50 (second compound 3.16 µM): 257 nM
- IC50 (second compound 10 µM): < 31.6 nM
Compound: Cn1ncc(Cl)c1-c1cc(C(=O)NC(CN)Cc2cccc(F)c2)sc1Cl (stereo not drawn) + CC(Nc1ncnc2nc[nH]c12)c1cc2cccc(Cl)c2c(=O)n1-c1ccccc1
- viability, T/C [1]: 90.3%
- viability, T/C [2]: 88.7%
- viability, T/C [3]: 58.2%
- viability, T/C [4]: 36%
- viability, T/C [5]: 13.7%
- viability, T/C [6]: 6.6%
- viability, T/C [7]: 74.9%
- viability, T/C [8]: 83.1%
- viability, T/C [9]: 55.2%
- viability, T/C [10]: 30.2%
- viability, T/C [11]: 12.4%
- viability, T/C [12]: 6.85%
- viability, T/C [13]: 89%
- viability, T/C [14]: 89%
- viability, T/C [15]: 63.1%
- viability, T/C [16]: 33.9%
- viability, T/C [17]: 10.6%
- viability, T/C [18]: 7.26%
- viability, T/C [19]: 84.4%
- viability, T/C [20]: 67.1%
- viability, T/C [21]: 57.9%
- viability, T/C [22]: 31.8%
- viability, T/C [23]: 11.7%
- viability, T/C [24]: 6.93%
- viability, T/C [25]: 86.4%
- viability, T/C [26]: 70.1%
- viability, T/C [27]: 44.6%
- viability, T/C [28]: 25.6%
- viability, T/C [29]: 13.2%
- viability, T/C [30]: 5.57%
- viability, T/C [31]: 50.3%
- viability, T/C [32]: 40.3%
- viability, T/C [33]: 37.1%
- viability, T/C [34]: 23%
- viability, T/C [35]: 10.5%
- viability, T/C [36]: 5.07%

- IC50 (second compound 0.00316 µM): 453 nM
- IC50 (second compound 0.01 µM): 520 nM
- IC50 (second compound 0.0316 µM): 254 nM
- IC50 (second compound 0.1 µM): 76.6 nM
- IC50 (second compound 0.316 µM): < 31.6 nM
- IC50 (second compound 1 µM): < 31.6 nM
Compound: CC(C)NCC(C(=O)N1CCN(c2ncnc3c2C(C)CC3O)CC1)c1ccc(Cl)cc1 (stereo not drawn) + CC(Nc1ccc2c(c1)OCCn1cc(N3C(=O)OCC3C(F)F)nc1-2)C(N)=O
- viability, T/C (second compound 0.00316 µM, first compound 0.0316 µM): 83.7%
- viability, T/C (second compound 0.00316 µM, first compound 0.1 µM): 81.7%
- viability, T/C (second compound 0.00316 µM, first compound 0.316 µM): 57.4%
- viability, T/C (second compound 0.00316 µM, first compound 1 µM): 30.3%
- viability, T/C (second compound 0.00316 µM, first compound 3.16 µM): 15.1%
- viability, T/C (second compound 0.00316 µM, first compound 10 µM): 6.47%
- viability, T/C (second compound 0.01 µM, first compound 0.0316 µM): 74.1%
- viability, T/C (second compound 0.01 µM, first compound 0.1 µM): 79.9%
- viability, T/C (second compound 0.01 µM, first compound 0.316 µM): 64%
- viability, T/C (second compound 0.01 µM, first compound 1 µM): 30.3%
- viability, T/C (second compound 0.01 µM, first compound 3.16 µM): 14.8%
- viability, T/C (second compound 0.01 µM, first compound 10 µM): 5.88%
- viability, T/C [1]: 73.8%
- viability, T/C [2]: 62%
- viability, T/C [3]: 48.1%
- viability, T/C [4]: 27.1%
- viability, T/C [5]: 12.8%
- viability, T/C [6]: 6.19%
- viability, T/C [7]: 87.1%
- viability, T/C [8]: 32.9%
- viability, T/C [9]: 27.9%
- viability, T/C [10]: 19.2%
- viability, T/C [11]: 10.1%
- viability, T/C [12]: 5.7%
- viability, T/C [13]: 27.5%
- viability, T/C [14]: 26.4%
- viability, T/C [15]: 20.7%
- viability, T/C [16]: 13.2%
- viability, T/C [17]: 7.79%
- viability, T/C [18]: 4.52%
- viability, T/C [19]: 14.9%
- viability, T/C [20]: 21.9%
- viability, T/C [21]: 15.7%
- viability, T/C [22]: 10.1%
- viability, T/C [23]: 10.1%
- viability, T/C [24]: 3.3%

Reference: PubChem BioAssay AID1963973 (Molecular Pharmacology Branch, DTP, NCI, 2024)
